{
  "source": "patent US4845215A",
  "about": "“Purine derivative” (Nippon Kayaku Kabushiki Kaisha, priority 1987, dated 1989)",
  "key": {"[1]": {"assay": "Acute toxicity (LD50) on mouse", "format": "in vivo", "conditions": "in vivo, iv", "description": "(§1) (3) The acute toxicity (LD50) of the compound of formula (1) on mouse was 200 mg/kg (iv) or above which is weaker than the toxicities of various known nucleic acid type antibiotics."}, "mouse": {"tested_on": "mouse", "assay": "Acute toxicity (LD50) on mouse", "format": "in vivo", "conditions": "iv", "description": "as §1"}, "[2]": {"tested_on": "Human Immunodeficiency Virus (HIV)", "assay": "Anti-HIV activity: development of virus antigen in MT-4 cell (fluorescent antibody technique)", "format": "cell-based", "conditions": "for Development of virus antigen (%): 4 days, DMSO only 80 to 90%", "description": "(b) Anti-\"Human Immunodeficiency Virus (HIV)\" activity.\n(§2) About 100,000 cells/ml of MT-4 cell was introduced into a tray having 24 holes. Further, 100 microliters of a solution containing a predetermined quantity of the compound of the present invention was added, and then it was cultured in a 5% (v/v) carbon dioxide gas incubator at 37° C. for 5 hours. Subsequently, 10^3 to 10^4 infection units of HIV was added and cultured for 4 days. Then, a part of the culture fluid was applied to a slide glass and immobilized with acetone, and development of virus antigen was examined by the fluorescent antibody technique.\nA serum of an AIDS patient was used as the primary antibody of the fluorescent antibody technique, and FITC-labelled anti-human IgG was used as its secondary antibody.\nThe compound of the present invention was used in the form of a solution\nin DMSO. In DMSO itself only, development of virus antigen was 80 to 90%."}, "[3]": {"assay": "Solubilities into solvents", "format": "physicochemical", "source_text": "(8) Solubilities into solvents"}, "[4]": {"tested_on": "T Lymphocyte (spleen cell of BALB/C mouse)", "assay": "Inhibition of Blastogenesis Reaction of T Lymphocyte by Con A (3H-thymidine take-up)", "format": "cell-based", "conditions": "Con A 5 micrograms/liter, 37° C., 72 hours", "description": "Inhibition of Blastogenesis Reaction of T Lymphocyte by Con A.\nSpleen cell of BALB/C mouse was dividingly poured into a microplate so that the number of cells came to 2×10^5 /0.2 ml/well. To each of all the wells other than control group was added the compound of the present invention having varied concentration. Further, 5 […] of Con A was added to all the wells. Then, the cell suspensions were cultured at 37° C. for 72 hours in 5% carbon dioxide gas incubator. The blastogenesis reaction of lymphocyte was examined by adding 1μCi/well of ^3 H-thymidine 6 hours before the completion of the culture and measuring its take-up into cultured cells by means of liquid scintillation counter. If the take-up count at the time when only Con A was added was expressed by Adpm and the take-up count at the time when Con A and drug were added was expressed by Bdpm, (1 - Bdpm/Adpm)×100 could be regarded as the inhibitory rate of each drug on blastogenesis."}, "[5]": {"tested_on": "Herpes Simplex virus type-II", "assay": "Antiviral activity by CPE (cytopathic effect) of Herpes Simplex virus type-II on Vevo cell", "format": "cell-based", "conditions": "read-out: Inhibition rate (%)", "description": "(a) Its antiviral activity was measured by observing CPE (cytopathic effect) of Herpes Simplex virus type-II on the Vevo cell originated from the kidney of Cercopithecus aetiops."}, "MT-4 cell": {"tested_on": "MT-4 cell", "assay": "Cytopathic effect on MT-4 cell without virus (microscopy)", "format": "cell-based", "conditions": "summary in words", "description": "as §2, with “technique. Cytopathic effect of the compound of the invention on MT-4 cell was examined microscopically without adding virus.” for “technique.”"}},
  "data": [
    {"smiles": "O=c1[nH]cnc2c1ncn2[C@@H]1O[C@H](CO)[C@H]1CO", "note": "[compound of formula (1), 9-[(2'R,3'R,4'S)-3',4'-bis-(hydroxymethyl)-2'-oxetanyl]-hypoxanthine]", "values": [
      {"measurement": "LD50", "setting": "[1]", "result": "≥ 200", "unit": "mg/kg"},
      {"measurement": "acute toxicity compared with various known nucleic acid type antibiotics", "setting": "mouse", "result": "weaker"},
      {"measurement": "Development of virus antigen (%)", "setting": "[2]; 1 μg/ml", "result": 40, "unit": "%"},
      {"measurement": "Development of virus antigen (%)", "setting": "[2]; 10 μg/ml", "result": 10, "unit": "%"},
      {"measurement": "Development of virus antigen (%)", "setting": "[2]; 100 μg/ml", "result": 2, "unit": "%"},
      {"measurement": "growth-inhibitory action of HIV", "setting": "[2]; summary in words", "result": "marked"},
      {"measurement": "Solubility", "setting": "[3]; acetone", "result": "insoluble or only slightly soluble"},
      {"measurement": "Solubility", "setting": "[3]; benzene", "result": "insoluble or only slightly soluble"},
      {"measurement": "Solubility", "setting": "[3]; dimethyl sulfoxide", "result": "soluble"},
      {"measurement": "Solubility", "setting": "[3]; ether", "result": "insoluble or only slightly soluble"},
      {"measurement": "Solubility", "setting": "[3]; ethyl acetate", "result": "insoluble or only slightly soluble"},
      {"measurement": "Solubility", "setting": "[3]; methanol", "result": "soluble"},
      {"measurement": "Solubility", "setting": "[3]; propanol", "result": "insoluble or only slightly soluble"},
      {"measurement": "Solubility", "setting": "[3]; water", "result": "soluble"},
      {"measurement": "IC50", "setting": "[4]", "result": 14.5, "unit": "µg/mL"},
      {"measurement": "inhibition at 31.3 µg/disc", "setting": "[5]; 31.3 mcg/well", "result": 8, "unit": "%"},
      {"measurement": "inhibition at 62.5 µg/disc", "setting": "[5]; 62.5 mcg/well", "result": 33, "unit": "%"},
      {"measurement": "inhibition at 125 µg/disc", "setting": "[5]; 125 mcg/well", "result": 75, "unit": "%"},
      {"measurement": "cytopathic effect (summary)", "setting": "MT-4 cell", "result": "small"}
    ]}
  ]
}
